From patent US7999119B2, “Compounds having CRTH2 antagonist activity” (Oxagen Limited, priority 2006, dated 2011)
Values joined by “and” are separate entries in the source; they are usually repeats but may differ in a detail not shown here. Equal entries are not always repeated. Where two headings read alike, the source gives them in different places.

Tests used:
[1] = system: DK-PGD2-induced blood eosinophilia; assay: Inhibition of DK-PGD2-induced blood eosinophilia in rats; format: in vivo, rat; conditions: female rats, oral dosing 30 min before 10 μg DK-PGD2 intracardiac; ED50 from dose-response curve; the values are: ED50
Experimental: Evaluation of Compounds of General Formula (I) as Inhibitors of 13,14-dihydro-15-keto prostaglandin D2 (DK-PGD2)-Induced Blood Eosinophilia in Rats
The test compound was dissolved in DMSO and diluted with water to give a final dosing volume of 2 ml/kg.
Female rats (175-250 g; UH colony) were dosed orally with test compound (or vehicle).
30 min after dosing all animals were anaesthetised with isoflurane.
Following induction of anaesthesia, animals receive an intracardiac injection of 10 μg DK-PGD2 in 0.3 ml heparinised (10 U/ml) saline. Control animals received an injection of 0.3 ml heparinised saline.
60 min after the intracardiac injection, animals were injected with an overdose of pentobarbitone sodium and a blood sample was taken (into heparin) by cardiac puncture while the rat was anaesthetised but not dead.
An aliquot of blood (100 μl) was added to Turk's solution and the total leukocyte count determined with a haemocytometer.
A further aliquot of blood (500 μl) was mixed with an equal volume of 4% Dextran (mw 500,000) and the erythrocytes allowed to settle. A cytospin preparation was made from the resulting leukocyte rich fraction.
Cytospin preparations were fixed with methanol (5 min) and stained with May-Grunwald (5 min) and Giemsa (15 min) stains. Finally cytospins were washed in phosphate buffer (pH6.8) and air dried.
Differential leukocyte counts were obtained from the cytospin preparations.
Blood eosinophil numbers were determined from the total leukocyte count and the percentage eosinophils (differential count).
Because it was impractical to generate sufficient data in any given experiment, data were obtained over a number of replicate experiments. Data from these replicate experiments were pooled, to provide at least 5 animals in each group and a dose-response curve fitted following a significance test (Mann Whitney) to determine whether or not DK-PGD2 caused a significant increase in blood eosinophils (GraphPad, Prism). A difference between groups was taken to be significant when P<0.05. ED50 values were calculated from the dose-response curve.

[2] = system: PGD2 induced eosinophil shape change; assay: Human whole blood eosinophil shape change assay; format: cell-based
Experimental: Human Whole Blood Eosinophil Shape Change Assay
Compounds 1 to 3 were assayed for their effect on PGD2 induced eosinophil shape change and were compared with Comparator Compounds A to G.
Shape Change Assay in Whole Blood
Compounds (1 μl, 200× final concentration) were added directly to 200 μl whole blood, mixed well and incubated for 15 min, 37° C., 5% CO2. After this time, cell shape was fixed by addition of 300 μl Cytofix™ buffer (BD Biosciences), 15 min on ice. 10 ml RBC lysis buffer was added to the fixed cells, incubated 5 min, at room temperature and centrifuged, 300×g for 5 min. Supernatant (containing lysed red cells) was removed and the lysis step was repeated. Leukocytes were resuspended in 250 μl RPMI/10% FCS and shape change analysed by FACS. Eosinophils were gated out based on their autofluorescence and 2000 eosinophil events were counted per sample. Data were analysed in triplicate.

[3] = Pharmacokinetics following oral administration in the rat; format: in vivo; conditions: for AUC(0-inf) / Cmax / Tmax / half-life / AUCinf / T½: 3 mg/kg p.o
Experimental: Investigation of Pharmacokinetics of Compounds of General Formula (I) Following Oral Administration in the Rat
Rats were weighed on the day of dosing.
The test material was prepared as a 0.3 mg/mL suspension in 1% carboxy-methyl-cellulose (CMC).
Three groups of 3 rats were dosed as follows:
Doses were administered as a single oral dose using a gavage tube at a constant dose volume of 10 mL/kg.
At each sampling time point blood samples (approximately 0.3 mL) was taken from a catheter inserted into a lateral tail vein prior to the start of the experiment. The final blood sample (approximately 2 mL) from each animal was taken by cardiac puncture under isoflurane anaesthesia following which the animal was killed by exsanguination. Blood samples were taken into individual heparinised containers. Blood samples were collected at the following times post-dose:
Following collection, the blood samples were centrifuged (approximately 10,000×g, 2 min at 4° C.) and the plasma stored as one aliquot at approximately −20° C. pending analysis of drug concentrations by LC-MS/MS.
The plasma samples were analysed for test material concentrations at BioDynamics using an LC-MS/MS method developed at BioDynamics.

[4] = Homo sapiens, Eosinophil, 10 nm PGD2-induced eosinophil shape change, human whole blood, read-out: Whole Blood IC50
[5] = Homo sapiens, Eosinophil, Table 12 summary of whole blood eosinophil shape change IC50, read-out: IC50 (μmol)
[6] = male, rat, plasma, po, 3 mg/kg, rat, 3 mg/kg oral, 0.25 h, individual male animals, read-out: Concentration in Blood
[7] = male, rat, plasma, po, 3 mg/kg, rat, 3 mg/kg oral, 0.25 h, mean, read-out: Concentration in Blood, Mean
[8] = male, rat, plasma, po, 3 mg/kg, rat, 3 mg/kg oral, 0.5 h, individual male animals, read-out: Concentration in Blood
[9] = male, rat, plasma, po, 3 mg/kg, rat, 3 mg/kg oral, 0.5 h, mean, read-out: Concentration in Blood, Mean
[10] = male, rat, plasma, po, 3 mg/kg, rat, 3 mg/kg oral, 1 h, individual male animals, read-out: Concentration in Blood
[11] = male, rat, plasma, po, 3 mg/kg, rat, 3 mg/kg oral, 1 h, mean, read-out: Concentration in Blood, Mean
[12] = male, rat, plasma, po, 3 mg/kg, rat, 3 mg/kg oral, 2 h, individual male animals, read-out: Concentration in Blood
[13] = male, rat, plasma, po, 3 mg/kg, rat, 3 mg/kg oral, 2 h, mean, read-out: Concentration in Blood, Mean
[14] = male, rat, plasma, po, 3 mg/kg, rat, 3 mg/kg oral, 4 h, individual male animals, read-out: Concentration in Blood
[15] = male, rat, plasma, po, 3 mg/kg, rat, 3 mg/kg oral, 4 h, mean, read-out: Concentration in Blood, Mean
[16] = male, rat, plasma, po, 3 mg/kg, rat, 3 mg/kg oral, 6 h, mean, read-out: Concentration in Blood, Mean
[17] = male, rat, plasma, po, 3 mg/kg, rat, 3 mg/kg oral, 8 h, mean, read-out: Concentration in Blood, Mean
[18] = male, rat, plasma, po, 3 mg/kg, rat, 3 mg/kg oral, 12 h, mean, read-out: Concentration in Blood, Mean
[19] = male, rat, plasma, po, 3 mg/kg, rat, individual male animals, read-out: AUCinf
[20] = male, rat, plasma, po, 3 mg/kg, rat, individual male animals, read-out: Cmax
[21] = male, rat, plasma, po, 3 mg/kg, rat, individual male animals, read-out: Tmax
[22] = male, rat, plasma, po, 3 mg/kg, rat, mean, summary without unit (Table 12), read-out: AUCinf (mean)
[23] = male, rat, plasma, po, 3 mg/kg, rat, mean, summary without unit (Table 12), read-out: Cmax (mean)
[24] = male, rat, plasma, po, 3 mg/kg, rat, mean, read-out: AUCinf, Mean
[25] = male, rat, plasma, po, 3 mg/kg, rat, mean, read-out: Cmax, Mean
[26] = male, rat, plasma, po, 3 mg/kg, rat, mean, read-out: Tmax, Mean
[27] = male, rat, plasma, po, 3 mg/kg, rat, mean, read-out: T½, Mean (converted)
[28] = rat, 3 mg/kg oral, 0.25 h, individual male animals, 3 mg/kg
[29] = rat, 3 mg/kg oral, 0.5 h, individual male animals, 3 mg/kg
[30] = rat, 3 mg/kg oral, 1 h, individual male animals, 3 mg/kg
[31] = rat, 3 mg/kg oral, 2 h, individual male animals, 3 mg/kg
[32] = rat, 3 mg/kg oral, 4 h, individual male animals, 3 mg/kg
[33] = rat, 3 mg/kg oral, 6 h, individual male animals, 3 mg/kg
[34] = rat, 3 mg/kg oral, 8 h, individual male animals, 3 mg/kg
[35] = rat, 3 mg/kg oral, 12 h, individual male animals, 3 mg/kg
[36] = rat, 3 mg/kg oral, 24 h, individual male animals, 3 mg/kg
[37] = rat, individual male animals, 3 mg/kg

Cc1c(Cc2ccccc2S(=O)(=O)c2ccccc2)c2cc(F)ccc2n1CC(=O)O [Compound 1, 2-(5-fluoro-2-methyl-3-(2-(phenylsulfonyl)benzyl)-1H-indol-1-yl)acetic acid]
Potency in inhibition of DK-PGD2-induced blood eosinophilia [1]: 2.5 µg/kg | IC50 [2, 4]: 5 nM | IC50 [2, 5]: 5 nM | IC50 ([2]; whole blood eosinophil shape change IC50 converted to ng/mL): 2.2 ng/mL | concentration at 0.25 h [3, 6]: 1160 ng/mL | concentration at 0.25 h [3, 7]: 1450 ng/mL | concentration at 0.5 h [3, 8]: 2680 ng/mL | concentration at 0.5 h [3, 9]: 2910 ng/mL | concentration at 1 h [3, 10]: 3840 ng/mL | concentration at 1 h [3, 11]: 4000 ng/mL | concentration at 2 h [3, 12]: 4330 ng/mL | concentration at 2 h [3, 13]: 3950 ng/mL | concentration at 4 h [3, 14]: 1890 ng/mL | concentration at 4 h [3, 15]: 1540 ng/mL | concentration at 6 h [3, 16]: 1050 ng/mL | concentration at 8 h [3, 17]: 734 ng/mL | concentration at 12 h ([3]; male, rat, plasma, po, 3 mg/kg, rat, 3 mg/kg oral, 12 h, individual male animals, read-out: Concentration in Blood): 455 ng/mL | concentration at 12 h [3, 18]: 375 ng/mL | concentration at 24 h ([3]; male, rat, plasma, po, 3 mg/kg, rat, 3 mg/kg oral, 24 h, mean, read-out: Concentration in Blood, Mean): 47.4 ng/mL | AUC(0-inf) [3, 19]: 23800 ng·h/mL | Cmax [3, 20]: 4330 ng/mL | Tmax [3, 21]: 2 h | half-life ([3]; male, rat, plasma, po, 3 mg/kg, rat, individual male animals, read-out: T½ (converted)): 4.11 h | AUC(0-inf) [3, 22]: 19200 ng·h/mL | Cmax [3, 23]: 4160 ng/mL | AUC(0-inf) [3, 24]: 19300 ng·h/mL | Cmax [3, 25]: 4160 ng/mL | Tmax [3, 26]: 1.3 h | half-life [3, 27]: 3.6 h | Fold over IC50 at 12 h ([3]; mean blood concentration at 12 h (rat, 3 mg/kg p.o.) divided by whole blood IC50 in ng/ml): 170 | Concentration in Blood [3, 28]: 1496.0 ng/mL and 1678.0 ng/mL | Concentration in Blood [3, 29]: 2792.4 ng/mL and 3264.7 ng/mL | Concentration in Blood [3, 30]: 3895.3 ng/mL and 4262.9 ng/mL | Concentration in Blood [3, 31]: 3454.7 ng/mL and 4051.1 ng/mL | Concentration in Blood [3, 32]: 1046.5 ng/mL and 1670.8 ng/mL | Concentration in Blood [3, 33]: 1423.7 ng/mL and 547.5 ng/mL and 1183.1 ng/mL | Concentration in Blood [3, 34]: 1099.9 ng/mL and 404.7 ng/mL and 696.2 ng/mL | Concentration in Blood [3, 35]: 256.6 ng/mL and 412.8 ng/mL | Concentration in Blood [3, 36]: 68.5 ng/mL and 10.2 ng/mL and 63.5 ng/mL | AUCinf [3, 37]: 14846 ng·h/mL and 21731 ng·h/mL | Cmax [3, 37]: 3895 ng/mL and 4263 ng/mL | Tmax [3, 37]: 1 h | T½ [3, 37]: 3.07 h and 4.59 h

Cc1c(Cc2ccccc2S(=O)(=O)c2ccc(Cl)cc2)c2cc(F)ccc2n1CC(=O)O [Compound 2, 2-(3-(2-(4-chlorophenylsulfonyl)benzyl)-5-fluoro-2-methyl-1H-indol-1-yl)acetic acid]
Potency in inhibition of DK-PGD2-induced blood eosinophilia [1]: 10 µg/kg | IC50 [2, 4]: 2 nM | IC50 [2, 5]: 2 nM | IC50 ([2]; Homo sapiens, Eosinophil, whole blood eosinophil shape change IC50 converted to ng/mL, read-out: IC50): 0.9 ng/mL | IC50 ([2]; Homo sapiens, Eosinophil, read-out: IC50 in the whole blood eosinophil shape change assay): 2 nM | concentration at 0.25 h [3, 6]: 1570 ng/mL | concentration at 0.25 h [3, 7]: 1490 ng/mL | concentration at 0.5 h [3, 8]: 2610 ng/mL | concentration at 0.5 h [3, 9]: 2220 ng/mL | concentration at 1 h [3, 10]: 2960 ng/mL | concentration at 1 h [3, 11]: 2900 ng/mL | concentration at 2 h [3, 12]: 2240 ng/mL | concentration at 2 h [3, 13]: 2500 ng/mL | concentration at 4 h [3, 14]: 1130 ng/mL | concentration at 4 h [3, 15]: 1370 ng/mL | concentration at 6 h [3, 16]: 640 ng/mL | concentration at 8 h [3, 17]: 450 ng/mL | concentration at 12 h [3, 18]: 100 ng/mL | AUC(0-inf) [3, 19]: 13200 ng·h/mL | Cmax [3, 20]: 2960 ng/mL | Tmax [3, 21]: 1 h | AUC(0-inf) [3, 22]: 11700 ng·h/mL | Cmax [3, 23]: 2950 ng/mL | AUC(0-inf) [3, 24]: 11700 ng·h/mL | Cmax [3, 25]: 2950 ng/mL | Tmax [3, 26]: 1.3 h | half-life [3, 27]: 3.7 h | Concentration in Blood [3, 28]: 1297.7 ng/mL and 1608.1 ng/mL | Concentration in Blood [3, 29]: 1770.2 ng/mL and 2276.6 ng/mL | Concentration in Blood [3, 30]: 2367.1 ng/mL and 3366.1 ng/mL | Concentration in Blood [3, 31]: 2536.9 ng/mL and 2717.6 ng/mL | Concentration in Blood [3, 32]: 1319.1 ng/mL and 1666.5 ng/mL | Concentration in Blood [3, 33]: 519.6 ng/mL and 368.3 ng/mL and 1032.6 ng/mL | Concentration in Blood [3, 34]: 423.7 ng/mL and 186.7 ng/mL and 740.4 ng/mL | Concentration in Blood [3, 35]: 144.7 ng/mL and 28.2 ng/mL and 128.1 ng/mL | Concentration in Blood [3, 36]: 60.5 ng/mL and 0.0 ng/mL (2×) | AUCinf [3, 37]: 10179 ng·h/mL and 15677 ng·h/mL | Cmax [3, 37]: 2537.0 ng/mL and 3366.0 ng/mL | Tmax [3, 37]: 2.0 h | T½ [3, 37]: 6 hours and 2 hours (2×)
